# Counter-ions that a name gives are not always drawn.
# What was measured:
# h5-HT4b = target: T1, h5-HT4b (Homo sapiens, UniProt Q13639); assay: 5HT4 antagonism: [3H]GR113808 binding to membranes of h5-HT4b-HEK 293 clone 9 cells; conditions: displacement of [3H]GR113808 0.1 nM; h5-HT4b-HEK 293 membranes; 30 min at 25° C.; read-out: pIC50 (5HT4 antagonistic data) (converted)
# T1 construct: expressed in transfected cells; host or cells: HEK 293 (clone 9), membrane preparation
# Description: h5-HT4b-HEK 293 clone 9 cells were cultured in 150 mm Petri dishes and washed twice with cold PBS. The cells were then scraped from the plates and suspended in 50 mM Tris-HCl buffer, pH 7.4 and harvested by centrifugation at 23,500 rpm for 10 minutes. The pellet was resuspended in 5 mM Tris-HCl, pH 7.4 and homogenized with an Ultra Turrax homogenizer. The membranes were collected by centrifugation at 30,000 rpm for 20 min, resuspended in 50 mM Tris-HCl pH 7.4 and stored at −80° C. For the experiment, assay mixtures (0.5 ml) contained 50 μl of the tritiated ligand (5-HT4 antagonist [^3H]GR113808 0.1 nM) and 0.4 ml membrane preparation (15 μg protein/ml). 50 μl of 10% DMSO was added for total binding. 50 μl of 1 μM of (+)-trans-(1-butyl-3-hydroxy-4-piperidinyl)methyl 8-amino-7-chloro-2,3-dihydro-1,4-benzodioxin-5-carboxylate (a proprietary 5HT4 agonist of Janssen Pharmaceutica) was added for determination of non-specific binding.
# The [^3H]GR113808 assay buffer was 50 mM HEPES-NaOH, pH 7.4. The mixtures were incubated for 30 min at 25° C. The incubation was terminated by filtration over a Unifilter 96 GF/B presoaked in 0.1% polyethylenimine, followed by six washing steps with 50 mM HEPES-NaOH, pH 7.4.
# [1] = Metabolic stability: incubation with liver microsomes and NADPH-generating system, LC-MS analysis; format: in vitro ADME; conditions: compound 5 μM; microsomes 1 mg/ml; NADPH-generating system; 60 minutes at 37 degrees Celsius
# Description: Sub-cellular tissue preparations were made according to Gorrod et al. (Xenobiotica 5: 453-462, 1975) by centrifugal separation after mechanical homogenization of tissue. Liver tissue was rinsed in ice-cold 0.1 M Tris-HCl (pH 7.4) buffer to wash excess blood. Tissue was then blotted dry, weighed and chopped coarsely using surgical scissors. The tissue pieces were homogenized in 3 volumes of ice-cold 0.1 M phosphate buffer (pH 7.4).
# Tissue homogenates were centrifuged at 9000×g for 20 minutes at 4° C. The resulting supernatant was stored at −80° C. and is designated ‘S9’.
# The S9 fraction can be further centrifuged at 100.000×g for 60 minutes (4° C.). The resulting supernatant was carefully aspirated, aliquoted and designated ‘cytosol’. The pellet was re-suspended in 0.1 M phosphate buffer (pH 7.4) in a final volume of 1 ml per 0.5 g original tissue weight and designated ‘microsomes’.
# All sub-cellular fractions were aliquoted, immediately frozen in liquid nitrogen and stored at −80° C. until use.
# For the samples to be tested, the incubation mixture contained PBS (0.1M), compound (5 μM), microsomes (1 mg/ml) and a NADPH-generating system (0.8 mM glucose-6-phosphate, 0.8 mM magnesium chloride and 0.8 Units of glucose-6-phosphate dehydrogenase). Control samples contained the same material but the microsomes were replaced by heat inactivated (10 minutes at 95 degrees Celsius) microsomes. Recovery of the compounds in the control samples was always 100%.
# The mixtures were preincubated for 5 minutes at 37 degrees Celsius. The reaction was started at time point zero (t=0) by addition of 0.8 mM NADP and the samples were incubated for 60 minutes (t=60). The reaction was terminated by the addition of 2 volumes of DMSO. Then the samples were centrifuged for 10 minutes at 900×g and the supernatants were stored at room temperature for no longer as 24 hours before analysis. All incubations were performed in duplo. Analysis of the supernatants was performed with LC-MS analysis. Elution of the samples was performed on a Xterra MS C18 (50×4.6 mm, 5 μm, Waters, US). An Alliance 2790 (Supplier: Waters, US) HPLC system was used. Elution was with buffer A (25 mM ammoniumacetate (pH 5.2) in H2O/acetonitrile (95/5)), solvent B being acetonitrile and solvent C methanol at a flow rate of 2.4 ml/min. The gradient employed was increasing the organic phase concentration from 0% over 50% B and 50% C in 5 min up to 100% B in 1 minute in a linear fashion and organic phase concentration was kept stationary for an additional 1.5 minutes. Total injection volume of the samples was 25 μl.
# A Quatro triple quadrupole mass spectrometer fitted with and ESP source was used as detector. The source and the desolvation temperature were set at 120 and 350° C. respectively and nitrogen was used as nebuliser and drying gas. Data were acquired in positive scan mode (single ion reaction). Cone voltage was set at 10 V and the dwell time was 1 second.
# Metabolic stability was expressed as % metabolism of the compound after 60 minutes (equation given as Example) of incubation in the presence of active microsomes E(act))
# T1 sequence (Q13639 whole entry): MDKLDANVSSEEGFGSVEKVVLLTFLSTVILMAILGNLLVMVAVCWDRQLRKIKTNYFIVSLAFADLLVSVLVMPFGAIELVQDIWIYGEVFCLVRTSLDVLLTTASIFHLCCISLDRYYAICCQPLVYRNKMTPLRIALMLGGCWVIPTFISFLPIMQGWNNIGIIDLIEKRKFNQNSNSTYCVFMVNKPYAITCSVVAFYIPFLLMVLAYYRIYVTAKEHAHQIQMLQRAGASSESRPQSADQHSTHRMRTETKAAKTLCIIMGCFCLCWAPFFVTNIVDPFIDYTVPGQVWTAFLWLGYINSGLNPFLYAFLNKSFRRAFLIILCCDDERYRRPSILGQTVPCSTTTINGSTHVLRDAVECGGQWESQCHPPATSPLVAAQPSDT
melting point [°C],IC50 (h5-HT4b) [nM],% metabolised compound after 60 minutes [1] [%],Compound
,1,,CO[C@@H]1CN(CCCCn2ccc(O)n2)CC[C@H]1CNC(=O)c1cc(Cl)c(Br)c2c1OCCCO2 (relative stereo) [Compound 30]
,2.4,5,COc1ccc(C(=O)NC[C@@H]2CCN(CCCCn3ccc(O)n3)C[C@H]2O)c2c1OCCO2 [Compound 1]
,11.5,11,COc1ccc(C(=O)NCC2CCN(CCCCn3ccc(O)n3)CC2OC)c2c1OCCO2 (centres unmarked) [Compound 4]
,123,4,COc1ccc(C(=O)NC[C@@H]2CCN(CCCc3cc(O)no3)C[C@H]2O)c2c1OCCO2 [Compound 5]
,7.94,3,Cc1ccc(C(=O)NC[C@@H]2CCN(CCCc3nnn[nH]3)C[C@H]2O)c2c1OCCCO2 [Compound 9]
,5.62,2,Cc1ccc(C(=O)NC[C@@H]2CCN(CCCCc3nnn[nH]3)C[C@H]2O)c2c1OCCCO2 [Compound 10]
,1.26,39,O=C(NCC1CCN(CCCCn2ccc(O)n2)CC1O)c1cc(Cl)cc2c1OCCCO2 (centres unmarked) [Compound 11]
,13.2,2,Cc1cc2c(c(C(=O)NC[C@@H]3CCN(CCCCc4nnn[nH]4)C[C@H]3O)c1)OCCCO2 [Compound 13]
,1.91,26,Cc1cc2c(c(C(=O)NC[C@@H]3CCN(CCCCn4ccc(O)n4)C[C@H]3O)c1)OCCCO2 [Compound 15]
,9.55,4.5,Cc1ccc(C(=O)NC[C@@H]2CCN(CCc3nnn[nH]3)C[C@H]2O)c2c1OCCCO2 [Compound 22]
,16.6,3,Cc1ccc(C(=O)NC[C@@H]2CCN(CCCc3cc(O)no3)C[C@H]2O)c2c1OCCCO2 [Compound 26]
,1.17,53,O=C(NCC1CCN(CCCCn2ccc(O)n2)CC1O)c1cc(Cl)c(Br)c2c1OCCCO2 (centres unmarked) [Compound 28]
,0.871,50,O=C(NCC1CCN(CCCCn2ccc(O)n2)CC1O)c1cc(Cl)c(Cl)c2c1OCCCO2 (centres unmarked) [Compound 29]
,1.48,12,Cc1cc2c(c(C(=O)NC[C@@H]3CCN(CCCN4C(=O)CNC4=O)C[C@H]3O)c1)OCCCO2 [Compound 31]
,0.759,,COC1CN(CCCCn2ccc(O)n2)CCC1CNC(=O)c1cc(Cl)c(Cl)c2c1OCCCO2 (centres unmarked) [Compound 32]
,3.89,11,N#Cc1cc2c(c(C(=O)NC[C@@H]3CCN(CCCCn4ccc(O)n4)C[C@H]3O)c1)OCCCO2 [Compound 34]
,83.2,,COc1ccc(C(=O)NC[C@@H]2CCN(CCCc3cc(O)no3)C[C@H]2O)c2c1OCCCO2 [Compound 35]
,17.8,1,O=C(NC[C@@H]1CCN(CCCc2cc(O)no2)C[C@H]1O)c1cccc2c1OCCCO2 [Compound 37]
,1.05,18,Cc1cc2c(c(C(=O)NC[C@@H]3CCN(CCCCN4CCOCC4)C[C@H]3O)c1)OCCCO2 [Compound 38]
,4.07,0,COc1ccc(C(=O)NC[C@@H]2CCN(CCCCN3CCOCC3)C[C@H]2O)c2c1OCCCO2 [Compound 42]
,372,3,COc1ccc(C(=O)NCC2CCN(CCCc3cc(O)no3)CC2OC)c2c1OCCCO2 (centres unmarked) [Compound 44]

# The next lines start with the compound.
Compound,melting point [°C],IC50 (h5-HT4b) [nM],% metabolised compound after 60 minutes [1] [%]
O=C(NCC1CCN(CCCc2nnn[nH]2)CC1O)c1cc(Cl)cc2c1OCCCO2 (centres unmarked) (as salt: HCl) [Compound 7],212,,
Cc1cc2c(c(C(=O)NC[C@@H]3CCN(CCCc4cc(O)no4)C[C@H]3O)c1)OCCCO2 (hydrate or solvate) [Compound 23],> 93,,
Cc1cc2c(c(C(=O)NCC3CCN(CCCN4CC(=O)NC4=O)CC3O)c1)OCCCO2 (centres unmarked) (hydrate or solvate) [Compound 24],135,,
O=C1CN(CCCN2CC[C@@H](CNC(=O)c3cc(Cl)cc4c3OCCCO4)[C@H](O)C2)C(=O)N1 (relative stereo) [Compound 21],,6.46,30.5
Cc1cc2c(c(C(=O)NC[C@@H]3CCN(CCCc4cc(O)no4)C[C@H]3O)c1)OCCO2 [Compound 2],,8.71,0
N#Cc1cc2c(c(C(=O)NC[C@@H]3CCN(CCCc4cc(O)no4)C[C@H]3O)c1)OCCO2 [Compound 3],,148,
O=C(NC[C@@H]1CCN(CCCc2cc(O)no2)C[C@H]1O)c1cc(F)cc2c1OCCO2 [Compound 6],,2750,8
O=C(NCC1CCN(CCCc2nnn[nH]2)CC1O)c1cc(Cl)cc2c1OCCCO2 (centres unmarked) [Compound 7],,31.6,5
O=C(NC[C@@H]1CCN(CCCCc2nnn[nH]2)C[C@H]1O)c1cc(Cl)cc2c1OCCCO2 [Compound 8],,7.24,2.5
O=C(NC[C@@H]1CCN(CCCn2nn[nH]c2=O)C[C@H]1O)c1cc(Cl)cc2c1OCCCO2 [Compound 16],,18.2,0.5
Cc1cc2c(c(C(=O)NC[C@@H]3CCN(CCc4nnn[nH]4)C[C@H]3O)c1)OCCCO2 [Compound 19],> 125,46.8,1
O=C(NC[C@@H]1CCN(CCc2nnn[nH]2)C[C@H]1O)c1cc(Cl)cc2c1OCCCO2 [Compound 20],,64.6,0
Cc1cc2c(c(C(=O)NC[C@@H]3CCN(CCCc4cc(O)no4)C[C@H]3O)c1)OCCCO2 [Compound 23],,16.6,6
Cc1cc2c(c(C(=O)NCC3CCN(CCCN4CC(=O)NC4=O)CC3O)c1)OCCCO2 (centres unmarked) [Compound 24],,7.08,16
COC1CN(CCCCn2ccc(O)n2)CCC1CNC(=O)c1cc(C#N)cc2c1OCCCO2 (centres unmarked) [Compound 25],,33.9,55
O=C(NC[C@@H]1CCN(CCCc2cc(O)no2)C[C@H]1O)c1cc(Cl)cc2c1OCCCO2 [Compound 27],,10.2,12
O=C(NC[C@@H]1CCN(CCCc2cc(O)no2)C[C@H]1O)c1cc(F)cc2c1OCCCO2 [Compound 36],,14.1,10
COC1CN(CCCc2cc(O)no2)CCC1CNC(=O)c1cc(Cl)cc2c1OCCCO2 (centres unmarked) [Compound 39],,22.9,17
COC1CN(CCCc2cc(O)no2)CCC1CNC(=O)c1cc(C)cc2c1OCCCO2 (centres unmarked) [Compound 45],,132,6
